Laboratory results as given in ChEMBL document CHEMBL5291721, “A preclinical secondary pharmacology resource illuminates target-adverse drug reaction associations of marketed drugs” (Nat Commun, 2023).

Legend:
[1] = molecular target: Voltage-gated inwardly rectifying potassium channel KCNH2 (Homo sapiens, UniProt Q12809); type: functional
[2] = molecular target: T1, Muscarinic acetylcholine receptor M2 (Homo sapiens, UniProt P08172)
T1 sequence (P08172 whole entry): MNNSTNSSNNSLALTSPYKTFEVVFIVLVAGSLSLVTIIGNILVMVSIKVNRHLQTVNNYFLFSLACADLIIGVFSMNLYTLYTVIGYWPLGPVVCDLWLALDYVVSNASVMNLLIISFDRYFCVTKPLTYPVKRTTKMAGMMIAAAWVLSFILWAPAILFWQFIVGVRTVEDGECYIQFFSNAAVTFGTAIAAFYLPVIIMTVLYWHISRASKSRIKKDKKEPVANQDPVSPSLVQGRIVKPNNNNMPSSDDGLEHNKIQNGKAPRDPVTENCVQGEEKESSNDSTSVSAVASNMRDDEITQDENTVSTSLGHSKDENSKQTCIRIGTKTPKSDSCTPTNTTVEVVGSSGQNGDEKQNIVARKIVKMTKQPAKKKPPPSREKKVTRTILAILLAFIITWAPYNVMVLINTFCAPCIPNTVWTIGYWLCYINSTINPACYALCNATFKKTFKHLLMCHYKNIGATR

[3] = molecular target: 5-hydroxytryptamine receptor 2B (Homo sapiens, UniProt P41595); type: functional, cell-based
[4] = molecular target: T2, Alpha-2A adrenergic receptor (Homo sapiens, UniProt P08913)
T2 sequence (P08913 whole entry): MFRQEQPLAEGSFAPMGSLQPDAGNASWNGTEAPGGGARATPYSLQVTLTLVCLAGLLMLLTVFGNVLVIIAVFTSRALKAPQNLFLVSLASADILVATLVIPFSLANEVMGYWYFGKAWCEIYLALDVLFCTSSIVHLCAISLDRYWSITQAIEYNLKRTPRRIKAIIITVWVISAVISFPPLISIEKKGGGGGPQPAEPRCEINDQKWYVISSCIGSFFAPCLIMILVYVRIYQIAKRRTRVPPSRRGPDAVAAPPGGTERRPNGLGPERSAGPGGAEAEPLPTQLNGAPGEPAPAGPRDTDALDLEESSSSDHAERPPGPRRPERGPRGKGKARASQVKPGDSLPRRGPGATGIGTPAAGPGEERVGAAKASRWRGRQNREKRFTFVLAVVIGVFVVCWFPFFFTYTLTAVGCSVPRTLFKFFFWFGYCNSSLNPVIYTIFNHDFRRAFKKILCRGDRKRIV

[5] = molecular target: Sodium-dependent dopamine transporter (Homo sapiens, UniProt Q01959)
[6] = molecular target: cGMP-inhibited 3',5'-cyclic phosphodiesterase 3A (Homo sapiens, UniProt Q14432); type: functional
[7] = molecular target: T3, Thromboxane A2 receptor (Homo sapiens, UniProt P21731); type: functional, cell-based
T3 sequence (P21731 whole entry): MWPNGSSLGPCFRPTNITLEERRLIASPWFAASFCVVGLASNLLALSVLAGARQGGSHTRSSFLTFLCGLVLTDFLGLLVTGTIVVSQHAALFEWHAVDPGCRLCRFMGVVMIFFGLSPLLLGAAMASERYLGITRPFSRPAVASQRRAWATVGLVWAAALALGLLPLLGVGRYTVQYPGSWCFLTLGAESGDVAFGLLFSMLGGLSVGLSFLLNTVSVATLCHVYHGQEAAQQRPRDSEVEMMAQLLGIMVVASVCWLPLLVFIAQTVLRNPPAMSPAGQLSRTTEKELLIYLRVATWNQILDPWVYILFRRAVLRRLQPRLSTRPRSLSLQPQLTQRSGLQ

[8] = molecular target: Histamine H3 receptor (Homo sapiens, UniProt Q9Y5N1)
[9] = molecular target: 3',5'-cyclic-AMP phosphodiesterase 4A (Homo sapiens, UniProt P27815); type: functional
[10] = molecular target: Acetylcholinesterase (Homo sapiens, UniProt P22303); type: functional
[11] = molecular target: Prothrombin (Homo sapiens, UniProt P00734); type: functional
[12] = molecular target: T3, Thromboxane A2 receptor; type: functional, cell-based; remark: listed apart in the source
Also: assay procedure not described here.

Chain of Voltage-gated inwardly rectifying potassium channel KCNH2 (Q12809 whole entry): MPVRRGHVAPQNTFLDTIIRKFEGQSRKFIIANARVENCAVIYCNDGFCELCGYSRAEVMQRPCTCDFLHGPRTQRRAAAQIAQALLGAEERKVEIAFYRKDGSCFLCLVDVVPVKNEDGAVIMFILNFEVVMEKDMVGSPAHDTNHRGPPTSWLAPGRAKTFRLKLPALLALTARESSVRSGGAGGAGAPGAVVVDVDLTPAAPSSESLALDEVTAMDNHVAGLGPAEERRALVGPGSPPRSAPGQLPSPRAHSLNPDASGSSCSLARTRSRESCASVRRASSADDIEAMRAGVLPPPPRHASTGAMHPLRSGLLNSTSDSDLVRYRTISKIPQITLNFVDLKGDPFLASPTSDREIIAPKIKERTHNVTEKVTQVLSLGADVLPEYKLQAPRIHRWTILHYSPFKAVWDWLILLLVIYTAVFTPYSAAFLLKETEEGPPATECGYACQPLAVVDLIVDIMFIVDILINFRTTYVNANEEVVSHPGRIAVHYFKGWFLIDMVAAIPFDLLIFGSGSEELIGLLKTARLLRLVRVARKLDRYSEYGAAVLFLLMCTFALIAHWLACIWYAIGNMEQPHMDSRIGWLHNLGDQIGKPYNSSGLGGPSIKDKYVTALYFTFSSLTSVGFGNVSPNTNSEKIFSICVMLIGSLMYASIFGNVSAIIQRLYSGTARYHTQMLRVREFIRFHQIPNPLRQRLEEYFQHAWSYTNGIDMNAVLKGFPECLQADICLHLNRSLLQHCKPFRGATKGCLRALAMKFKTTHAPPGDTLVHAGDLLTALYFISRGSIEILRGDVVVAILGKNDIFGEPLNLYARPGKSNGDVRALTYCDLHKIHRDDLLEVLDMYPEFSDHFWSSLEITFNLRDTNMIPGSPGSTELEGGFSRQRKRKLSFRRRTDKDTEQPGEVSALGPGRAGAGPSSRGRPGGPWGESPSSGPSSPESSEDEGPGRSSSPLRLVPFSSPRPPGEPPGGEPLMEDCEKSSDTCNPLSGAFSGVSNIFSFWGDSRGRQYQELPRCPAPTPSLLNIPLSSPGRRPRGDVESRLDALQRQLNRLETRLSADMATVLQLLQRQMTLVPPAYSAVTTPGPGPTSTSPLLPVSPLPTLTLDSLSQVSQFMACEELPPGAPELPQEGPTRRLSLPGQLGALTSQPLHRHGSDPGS
Chain of cGMP-inhibited 3',5'-cyclic phosphodiesterase 3A (Q14432 whole entry): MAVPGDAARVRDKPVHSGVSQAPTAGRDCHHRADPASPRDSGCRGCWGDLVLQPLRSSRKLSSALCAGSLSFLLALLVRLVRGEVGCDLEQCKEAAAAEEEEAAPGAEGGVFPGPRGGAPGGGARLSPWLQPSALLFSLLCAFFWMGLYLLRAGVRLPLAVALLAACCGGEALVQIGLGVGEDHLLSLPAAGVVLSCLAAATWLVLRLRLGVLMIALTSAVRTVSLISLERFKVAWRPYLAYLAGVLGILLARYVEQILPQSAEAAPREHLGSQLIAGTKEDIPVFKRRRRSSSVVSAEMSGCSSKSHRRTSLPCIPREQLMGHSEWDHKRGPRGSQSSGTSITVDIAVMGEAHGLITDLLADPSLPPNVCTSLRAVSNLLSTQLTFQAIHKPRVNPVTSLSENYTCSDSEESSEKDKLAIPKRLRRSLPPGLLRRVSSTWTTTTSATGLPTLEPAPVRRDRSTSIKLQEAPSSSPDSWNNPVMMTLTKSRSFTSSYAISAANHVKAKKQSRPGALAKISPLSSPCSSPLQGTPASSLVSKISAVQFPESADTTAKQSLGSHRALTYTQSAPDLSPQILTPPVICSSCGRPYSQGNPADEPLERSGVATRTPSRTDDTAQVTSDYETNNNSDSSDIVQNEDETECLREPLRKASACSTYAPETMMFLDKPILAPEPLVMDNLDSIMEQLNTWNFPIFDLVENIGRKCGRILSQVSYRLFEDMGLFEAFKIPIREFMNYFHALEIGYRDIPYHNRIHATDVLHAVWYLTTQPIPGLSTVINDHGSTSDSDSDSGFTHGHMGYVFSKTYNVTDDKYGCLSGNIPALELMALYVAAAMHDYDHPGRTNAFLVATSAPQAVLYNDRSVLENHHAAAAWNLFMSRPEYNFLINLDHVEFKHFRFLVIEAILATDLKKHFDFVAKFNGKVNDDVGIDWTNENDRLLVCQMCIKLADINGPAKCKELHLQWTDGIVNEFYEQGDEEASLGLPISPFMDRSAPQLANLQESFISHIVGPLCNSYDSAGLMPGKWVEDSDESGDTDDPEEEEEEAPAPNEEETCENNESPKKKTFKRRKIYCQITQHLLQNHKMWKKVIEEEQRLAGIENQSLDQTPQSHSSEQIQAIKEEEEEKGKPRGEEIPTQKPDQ
Chain of 3',5'-cyclic-AMP phosphodiesterase 4A (P27815 whole entry): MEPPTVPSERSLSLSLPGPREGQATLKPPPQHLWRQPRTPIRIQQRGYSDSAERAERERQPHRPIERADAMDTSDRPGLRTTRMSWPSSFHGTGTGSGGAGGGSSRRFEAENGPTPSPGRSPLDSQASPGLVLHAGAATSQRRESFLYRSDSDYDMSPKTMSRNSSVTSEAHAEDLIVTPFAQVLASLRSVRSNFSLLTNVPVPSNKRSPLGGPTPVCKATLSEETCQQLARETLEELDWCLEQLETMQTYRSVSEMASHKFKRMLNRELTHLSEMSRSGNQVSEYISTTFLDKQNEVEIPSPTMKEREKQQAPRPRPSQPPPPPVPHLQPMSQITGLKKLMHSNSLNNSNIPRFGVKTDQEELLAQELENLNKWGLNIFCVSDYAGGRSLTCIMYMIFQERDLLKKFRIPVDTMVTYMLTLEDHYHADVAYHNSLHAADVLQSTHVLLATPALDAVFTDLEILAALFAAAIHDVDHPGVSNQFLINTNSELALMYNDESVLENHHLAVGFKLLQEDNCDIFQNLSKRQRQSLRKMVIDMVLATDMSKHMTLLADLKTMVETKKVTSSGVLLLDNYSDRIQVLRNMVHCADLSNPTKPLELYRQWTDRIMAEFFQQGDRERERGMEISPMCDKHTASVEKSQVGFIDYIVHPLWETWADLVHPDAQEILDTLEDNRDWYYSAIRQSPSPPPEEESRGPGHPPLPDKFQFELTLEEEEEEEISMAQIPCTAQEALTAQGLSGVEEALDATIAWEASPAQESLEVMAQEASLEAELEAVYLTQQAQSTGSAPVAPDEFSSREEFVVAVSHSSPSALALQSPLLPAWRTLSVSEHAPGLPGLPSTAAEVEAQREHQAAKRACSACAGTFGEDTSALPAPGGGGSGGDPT
Chain of 5-hydroxytryptamine receptor 2B (P41595 whole entry): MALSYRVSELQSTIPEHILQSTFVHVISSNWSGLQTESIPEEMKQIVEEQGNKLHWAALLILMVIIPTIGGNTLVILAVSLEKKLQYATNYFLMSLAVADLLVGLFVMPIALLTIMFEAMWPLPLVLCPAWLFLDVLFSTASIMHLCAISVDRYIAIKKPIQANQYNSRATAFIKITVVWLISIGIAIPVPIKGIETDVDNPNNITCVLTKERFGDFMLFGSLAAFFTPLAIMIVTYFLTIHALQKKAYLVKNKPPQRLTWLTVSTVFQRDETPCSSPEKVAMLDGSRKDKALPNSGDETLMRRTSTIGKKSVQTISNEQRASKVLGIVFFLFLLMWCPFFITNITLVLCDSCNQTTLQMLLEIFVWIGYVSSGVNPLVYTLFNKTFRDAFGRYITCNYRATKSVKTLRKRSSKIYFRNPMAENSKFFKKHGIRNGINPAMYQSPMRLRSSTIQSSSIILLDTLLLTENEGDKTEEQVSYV
Chain of Histamine H3 receptor (Q9Y5N1 whole entry): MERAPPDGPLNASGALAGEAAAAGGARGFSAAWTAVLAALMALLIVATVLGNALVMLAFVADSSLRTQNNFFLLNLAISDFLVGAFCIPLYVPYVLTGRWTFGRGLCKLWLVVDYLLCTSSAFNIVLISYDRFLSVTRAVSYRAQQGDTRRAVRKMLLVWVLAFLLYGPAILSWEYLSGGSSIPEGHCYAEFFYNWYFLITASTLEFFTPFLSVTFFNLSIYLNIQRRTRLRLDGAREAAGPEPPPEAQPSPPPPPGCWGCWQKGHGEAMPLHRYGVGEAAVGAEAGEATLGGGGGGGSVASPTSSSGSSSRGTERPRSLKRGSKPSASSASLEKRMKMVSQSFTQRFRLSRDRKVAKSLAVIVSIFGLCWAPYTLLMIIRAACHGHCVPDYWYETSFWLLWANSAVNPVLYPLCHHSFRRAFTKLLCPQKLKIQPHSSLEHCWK
Chain of Sodium-dependent dopamine transporter (Q01959 whole entry): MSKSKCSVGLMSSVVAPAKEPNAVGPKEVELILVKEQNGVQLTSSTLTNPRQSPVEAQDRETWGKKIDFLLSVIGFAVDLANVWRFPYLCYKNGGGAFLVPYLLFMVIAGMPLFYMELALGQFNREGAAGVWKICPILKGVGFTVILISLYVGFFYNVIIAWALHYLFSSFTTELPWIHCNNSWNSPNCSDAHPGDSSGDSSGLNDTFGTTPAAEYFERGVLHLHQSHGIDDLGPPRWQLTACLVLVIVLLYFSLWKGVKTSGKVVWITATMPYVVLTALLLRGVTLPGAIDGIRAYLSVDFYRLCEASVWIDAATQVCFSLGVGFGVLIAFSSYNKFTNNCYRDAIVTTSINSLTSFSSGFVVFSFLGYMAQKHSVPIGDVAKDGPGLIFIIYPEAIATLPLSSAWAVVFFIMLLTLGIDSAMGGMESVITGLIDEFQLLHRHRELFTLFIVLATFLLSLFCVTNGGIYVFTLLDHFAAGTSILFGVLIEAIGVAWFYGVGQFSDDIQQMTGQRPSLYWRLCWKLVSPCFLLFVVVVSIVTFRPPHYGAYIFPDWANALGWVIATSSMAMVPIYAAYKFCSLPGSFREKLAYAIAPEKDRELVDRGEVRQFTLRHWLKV

SMILES	AC50 [1] [µM]	also measured
CNCCc1ccc(OC(=O)C(C)C)c(OC(=O)C(C)C)c1 [IBOPAMINE]	> 30	
CCOC(=O)C1=C(C)NC(C)=C(C(=O)OCC)C1c1ccccc1/C=C/C(=O)OC(C)(C)C [LACIDIPINE]	17.8	
CCC[C@@H]1C[C@@H](C(=O)N[C@@H]([C@H]2O[C@H](SC)[C@H](O)[C@@H](O)[C@H]2O)[C@@H](C)O)N(C)C1 [LINCOMYCIN]	> 30	
COC(=O)C1=C(C)NC(C)=C(C(=O)OCCN2CCN(C(c3ccccc3)c3ccccc3)CC2)C1c1cccc([N+](=O)[O-])c1 (centres undefined) [MANIDIPINE 6300]	0.82	
C=C1c2cccc(O)c2C(=O)C2=C(O)[C@]3(O)C(=O)C(C(N)=O)=C(O)[C@@H](N(C)C)[C@@H]3[C@@H](O)[C@H]12 [METHACYCLINE]	> 30	
CN(Cc1cnc2nc(N)nc(N)c2n1)c1ccc(C(=O)N[C@@H](CCC(=O)O)C(=O)O)cc1 [METHOTREXATE]	> 30	
Cc1ccccc1N1C(=O)c2cc(S(N)(=O)=O)c(Cl)cc2NC1C (centres undefined) [METOLAZONE]	> 30	
O=C(O)c1cccnc1Nc1cccc(C(F)(F)F)c1 [NIFLUMIC ACID]	> 30	
O=C1c2cccc3c2[C@H](CCC3)CN1[C@@H]1CN2CCC1CC2 [PALONOSETRON]	0.89	
OC[C@H]1O[C@@H](n2cnc3c2NC=NC[C@H]3O)C[C@@H]1O [PENTOSTATIN]	> 30	
NNCCc1ccccc1 [PHENELZINE]	> 30	AC50 [2]: > 30 µM; AC50 [3]: > 30 µM; AC50 [4]: 25.4 µM; AC50 [5]: > 30 µM; AC50 [6]: > 30 µM; AC50 [7]: > 30 µM; AC50 [8]: > 30 µM; AC50 [9]: > 30 µM; AC50 [10]: > 30 µM; AC50 [11]: > 30 µM; AC50 [12]: > 30 µM
O=C1c2ccccc2C(=O)C1c1ccccc1 [PHENINDIONE]	> 30	
CN[C@@H](C)[C@@H](O)c1ccccc1 [PSEUDOEPHEDRINE]	> 30	
CCCN1CC(NS(=O)(=O)N(CC)CC)CC2Cc3c(O)cccc3CC21 (centres undefined) [QUINAGOLIDE]	6.5	
C[C@]12CCC(=O)C[C@@H]1CC[C@@H]1[C@@H]2CC[C@]2(C)[C@@H](O)CC[C@@H]12 [STANOLONE]	> 30	
O=C1OC(OC(=O)c2cccnc2Nc2cccc(C(F)(F)F)c2)c2ccccc21 (centres undefined) [TALNIFLUMATE]	> 30	
C[C@]12C=CC(=O)C=C1CC[C@@H]1[C@@H]2CC[C@]2(C)OC(=O)CC[C@@H]12 [TESTOLACTONE]	> 30	
CCOC(=O)c1c(CSc2ccccc2)n(C)c2cc(Br)c(O)c(CN(C)C)c12 [UMIFENOVIR]	0.61	
